Laboratory results taken from US20260207713A1, “Drug Combination Kit for Controlling Blood Sugar” (Ningbo Y Biotechology lnc., priority 2023, published 2026).

Experiments:
diabetic rat models = assay: Type II diabetes rat model (high-sugar, high-fat diet plus STZ); fasting blood sugar and glycated hemoglobin after 3 months of drug intervention; format: in vivo, SPD rats
Method: A study in Aging (Albany NY). 2021 Mar. […] The inventor opted for 12-month-old male SPD rats (weighing between 540 grams and 560 grams) for the experiment. These rats were fed a high-sugar, high-fat diet (10% lard, 2.5% cholesterol, 1.0% pig bile salt, 20% sucrose, and 66.5% conventional feed). […] The diet continued for an additional 12 weeks. Finally, rats with a fasting blood sugar level exceeding 10 mmol/L were selected, and their fasting blood sugar levels were measured for 3 consecutive times every 3 days. Rats maintaining stable fasting blood sugar levels above 10 mmol/L were chosen. Each group comprised 5 animals, and a standard diet (18.0% fat, 24.0% protein, and 58.0% carbohydrates) was administered during the drug intervention period. Given that the lifespan of glycated hemoglobin is approximately 3 months, the duration of drug intervention was established at 3 months to ensure precise measurement of post-intervention glycated hemoglobin.
These ingredients are mixed evenly with unsaturated fish oil, and then encapsulated in ultra-long type No. 9 enteric-coated capsules. […] The ketoester was diluted with flavored water to achieve a 50% concentration, while the control solution consisted of flavored water only. The method of gastric gavage was employed.
After three months of medication, blood was drawn from the tail to measure fasting blood sugar and glycated hemoglobin, with results expressed as the mean.
Feed 50% ketoester solution three times daily: at 8 am, 12 pm, and 5 pm. The total daily intake was selected as 3 g/kg/day or 5 g/kg/day, as referenced in BMC Anesthesiol. 2023; 23:p43. […] The subsequent experiment utilized 50% ketoester solution at 3 g/day/kg.

[1] = test system: patients with type II diabetes; conditions: type II diabetes patients on chemical hypoglycemic drugs, no insulin injection, 28 consecutive days; cited from earlier work
[2] = cited from earlier work
[3] = 20 mg/kg once a day in the morning, diabetic rats
[4] = 50% ketoester solution 3 g/kg/day, three times daily by gavage, diabetic rats
[5] = 50% ketoester solution 5 g/kg/day, three times daily by gavage, diabetic rats

## Cc1ccc([C@@H]2O[C@H](CO)[C@@H](O)[C@H](O)[C@H]2O)cc1Cc1ccc(-c2ccc(F)cc2)s1 [Canagliflozin, canagliflozin, reference compound]
Diabetic rat models; [3]
  Fasting blood sugar after three months: 6.38 ± 0.41 mmol/L
  Glycated hemoglobin measurement after three months: 5.63 +/− 0.42%

## C[C@@H](O)CCOC(=O)C[C@@H](C)O [ketoester, (R)-3-hydroxybutyrate-(R)-1,3-butanediol ester]
Diabetic rat models; 3 g/kg/day versus 5 g/kg/day
  Difference in effects on fasting blood sugar and glycated hemoglobin between dosages: no significant difference
Diabetic rat models; [4]
  Fasting blood sugar measurement after three months: 7.15 ± 0.51 mmol/L
  Glycated hemoglobin measurement after three months: 6.82 +/− 0.34%
Diabetic rat models; [5]
  Fasting blood sugar measurement after three months: 6.90 ± 0.41 mmol/L
  Glycated hemoglobin measurement after three months: 6.75 +/− 0.42%
[1]
  Reduction in fructosamine: 13.4%
  Reduction in glycated hemoglobin: 8.3%
[2]; oral solution
  Duration of ketogenic effect: 4 to 6 h
  Ketogenic effect (level reached): approximately 3 mM

## CC(O)CC(=O)[O-].[Na+] (stereo not drawn) [sodium 3-hydroxybutyrate, reference compound]
[2]; early exogenous ketone
  Ketogenic effects: poor ketogenic effects
